The record followed here is paper PMC7660650, “Chemical Starting Matter for HNF4α Ligand Discovery and Chemogenomics” (International Journal of Molecular Sciences, 2020).

“And” between values parts separate entries of the source, which are not always exact repeats. Equal values may be shown once.

The assay addresses T1, Gal4-HNF4α (human HNF4α LBD) (Homo sapiens, UniProt P41235).
T1 construct: uniprot entry: P41235-1, residues 142-377; expressed in transfected cells; host or cells: HEK293T
T1 sequence (P41235 142-377): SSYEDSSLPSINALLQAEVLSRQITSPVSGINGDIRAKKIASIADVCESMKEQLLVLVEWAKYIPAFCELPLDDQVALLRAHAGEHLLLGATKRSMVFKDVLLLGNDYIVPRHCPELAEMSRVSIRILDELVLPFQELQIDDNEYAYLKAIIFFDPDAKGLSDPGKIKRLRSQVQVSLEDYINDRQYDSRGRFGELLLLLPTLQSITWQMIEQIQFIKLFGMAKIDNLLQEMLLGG
The assay can be described thus: Hybrid Gal4-HNF4α reporter gene assay in transiently transfected HEK293T cells. The class given is cell-based. Conditions: Table S1, primary screening, 50 µM. In general terms: A reporter such as luciferase makes a cellular process visible.
As for `Nc1nc2ccccc2n1Cc1ccc(F)cc1` [Prestw-Frag-1050, Nc1nc2ccccc2n1Cc1ccc(F)cc1], the “HNF4a-screening_activity_(mean_of_n=2)” value was 0.6752 and 1.069.
Turning to `OC(c1ccccc1)c1ccccc1` [Prestw-Frag-1122, OC(c1ccccc1)c1ccccc1], the “HNF4a-screening_activity_(mean_of_n=2)” value stood at 1.034.
In the case of `CN1CCC[C@H]1c1cccnc1` [Prestw-Frag-1187, CN1CCC[C@H]1c1cccnc1], the “HNF4a-screening_activity_(mean_of_n=2)” value came out at 1.172.
Then `CS(=O)(=O)c1ccc(CO)cc1` [Prestw-Frag-2234, CS(=O)(=O)c1ccc(CO)cc1], with 0.954; and `CS(=O)(=O)Nc1ccccc1Oc1ccccc1` [Prestw-Frag-1861, CS(=O)(=O)Nc1ccccc1Oc1ccccc1], with 1.046 and 0.7818; and `Cc1nc(-c2ccccc2F)cs1` [Prestw-Frag-3745, Cc1nc(cs1)-c1ccccc1F], with 1.103.
Then `c1ccc(N2CCN(c3ccccc3)CC2)cc1` [Prestw-Frag-3257, C1CN(CCN1c1ccccc1)c1ccccc1], with 1.063; and `CCN(CC)CCNC(=O)c1ccccc1O` [Prestw-Frag-1086, CCN(CC)CCNC(=O)c1ccccc1O], with 1.563 and 0.9485.
As to `NC1CCc2[nH]c3ccccc3c2C1` (stereo not drawn) [Prestw-Frag-3709, NC1CCc2[nH]c3ccccc3c2C1], the “HNF4a-screening_activity_(mean_of_n=2)” value came out at 1.209.
Next, `OCCn1cncn1` [Prestw-Frag-3101, OCCn1cncn1]: 0.9898; `COc1cc2c(cc1O)CCN[C@H]2C` [Prestw-Frag-1063, COc1cc2[C@H](C)NCCc2cc1O]: 1.128.
Then `CNC(=O)c1c(-c2ccccc2)noc1C` [Prestw-Frag-3690, CNC(=O)c1c(C)onc1-c1ccccc1], with 0.8222; and `CCN(CC)CCOc1ccccc1O` [Prestw-Frag-1345, CCN(CC)CCOc1ccccc1O], with 0.7766 and 1.111; and `NS(=O)(=O)c1ccccc1C(F)(F)F` [Prestw-Frag-1394, NS(=O)(=O)c1ccccc1C(F)(F)F], with 0.846.
Next, `CN1CCNCC1=O` [Prestw-Frag-3460, CN1CCNCC1=O]: 1.233; `O=C(O)CC(c1ccccc1)c1ccccc1` [Prestw-Frag-3250, OC(=O)CC(c1ccccc1)c1ccccc1]: 1.055.
Take `CCCOc1ccc(C(=O)OCC)cc1N` [Prestw-Frag-2724, CCCOc1ccc(cc1N)C(=O)OCC]: the “HNF4a-screening_activity_(mean_of_n=2)” value stood at 1.372.
Then `O=c1[nH]nc2ccccn12` [Prestw-Frag-1673, O=c1[nH]nc2ccccn12], with 1.045; and `COc1ccc(CCN(C)C)cc1OC` [Prestw-Frag-1445, COc1ccc(CCN(C)C)cc1OC], with 1.047 and 0.984; and `O=C1CN(Cc2ccccc2)CCN1` [Prestw-Frag-3459, O=C1CN(Cc2ccccc2)CCN1], with 1.076.
For `c1nc(C2CCNCC2)c[nH]1` [Prestw-Frag-3753, C1CC(CCN1)c1c[nH]cn1], the “HNF4a-screening_activity_(mean_of_n=2)” value worked out at 0.9547.
Turning to `CC(C)(C)NCC(O)COc1ccccc1C1CCCC1` (stereo not drawn) [Prestw-Frag-0674, CC(C)(C)NCC(O)COc1ccccc1C1CCCC1], the “HNF4a-screening_activity_(mean_of_n=2)” value stood at 1.434.
Take `CCN(CC)CCOC(=O)c1ccccc1` [Prestw-Frag-1735, CCN(CC)CCOC(=O)c1ccccc1]: the “HNF4a-screening_activity_(mean_of_n=2)” value was 0.9109 and 1.027.
Take `Cc1c(N)cccc1C(F)(F)F` [Prestw-Frag-1189, Cc1c(N)cccc1C(F)(F)F]: the “HNF4a-screening_activity_(mean_of_n=2)” value was 1.319.
On to `Clc1cccc(N2CCNCC2)c1Cl` [Prestw-Frag-2853, Clc1cccc(N2CCNCC2)c1Cl], for which the “HNF4a-screening_activity_(mean_of_n=2)” value was determined as 1.239.
Next, `c1cc(N2CCNCC2)ncn1` [Prestw-Frag-3729, C1CN(CCN1)c1ccncn1]: 1.017; `O=c1[nH]c2ccccc2o1` [Prestw-Frag-1087, O=c1[nH]c2ccccc2o1]: 1.002 and 1.32.
Take `OC1c2ccccc2CCc2ccccc21` [Prestw-Frag-2600, OC1c2ccccc2CCc2ccccc12]: the “HNF4a-screening_activity_(mean_of_n=2)” value is 0.7017.
As to `Cc1n[nH]c(C)c1N` [Prestw-Frag-3724, Cc1n[nH]c(C)c1N], the “HNF4a-screening_activity_(mean_of_n=2)” value came out at 0.9198.
Turning to `Clc1ccc(-c2cncnc2)cc1` [Prestw-Frag-1704, Clc1ccc(cc1)-c1cncnc1], the “HNF4a-screening_activity_(mean_of_n=2)” value was 0.9459 and 1.223.
Then `COC(=O)C(O)(c1ccccc1)C1CCCCC1` (stereo not drawn) [Prestw-Frag-1867, COC(=O)C(O)(C1CCCCC1)c1ccccc1], with 1.91 and 1.155; and `O=C(O)c1ccccc1O` [Prestw-Frag-1045, OC(=O)c1ccccc1O], with 1.058.
As for `CN1CCN(C(c2ccccc2)c2ccccc2)CC1` [Prestw-Frag-1325, CN1CCN(CC1)C(c1ccccc1)c1ccccc1], the “HNF4a-screening_activity_(mean_of_n=2)” value was determined as 0.9831.
Then `c1ccc(C(CCN2CCCCC2)c2ccccc2)cc1` [Prestw-Frag-1193, C(CN1CCCCC1)C(c1ccccc1)c1ccccc1], with 0.8943 and 1.009.
Then `CC(O)(c1ccccc1)c1ccccn1` (stereo not drawn) [Prestw-Frag-2237, CC(O)(c1ccccc1)c1ccccn1], with 0.9394; and `Clc1ccc(Cn2cnc3ccccc32)cc1` [Prestw-Frag-1165, Clc1ccc(Cn2cnc3ccccc23)cc1], with 0.6294 and 0.7204.
Take `CCN(Cc1ccccc1)c1ccccc1` [Prestw-Frag-1121, CCN(Cc1ccccc1)c1ccccc1]: the “HNF4a-screening_activity_(mean_of_n=2)” value is 1.173.
Then `O=C(O)c1ccccn1` [Prestw-Frag-2541, OC(=O)c1ccccn1], with 0.9518; and `Nc1nc2ccccc2o1` [Prestw-Frag-2256, Nc1nc2ccccc2o1], with 0.8277.
Then `C(=C\c1ccccc1)/CN1CCNCC1` [Prestw-Frag-1163, C(\C=C\c1ccccc1)N1CCNCC1], with 1.316; and `O=C1Cc2cc(F)ccc2N1` [Prestw-Frag-3667, Fc1ccc2NC(=O)Cc2c1], with 0.8142; and `ClC1(Cl)CC1c1ccccc1` (stereo not drawn) [Prestw-Frag-2566, ClC1(Cl)CC1c1ccccc1], with 1.078.
With `NCCc1ccc(S(N)(=O)=O)cc1` [Prestw-Frag-1076, NCCc1ccc(cc1)S(N)(=O)=O], the “HNF4a-screening_activity_(mean_of_n=2)” value was 1.134 and 1.077.
Next, `CNC(C)(C)Cc1ccccc1` [Prestw-Frag-1141, CNC(C)(C)Cc1ccccc1]: 1.206.
Then `Cc1c(O)c2ccccc2oc1=O` [Prestw-Frag-1130, Cc1c(O)c2ccccc2oc1=O], with 0.9979.
In the case of `c1ccc2c(c1)CNc1ccccc1C2` [Prestw-Frag-1722, C1Nc2ccccc2Cc2ccccc12], the “HNF4a-screening_activity_(mean_of_n=2)” value was 1.196 and 1.047.
On to `CS(=O)(=O)c1ccc(N)cc1` [Prestw-Frag-1214, CS(=O)(=O)c1ccc(N)cc1], for which the “HNF4a-screening_activity_(mean_of_n=2)” value came to 1.202.
For `O=C1COc2ccccc21` [Prestw-Frag-1361, O=C1COc2ccccc12], the “HNF4a-screening_activity_(mean_of_n=2)” value is 1.58.
Next, `CNS(=O)(=O)CCc1ccccc1` [Prestw-Frag-3368, CNS(=O)(=O)CCc1ccccc1]: 1.162; `OC1(c2ccc(Cl)cc2)CCNCC1` [Prestw-Frag-1365, OC1(CCNCC1)c1ccc(Cl)cc1]: 0.8125.
Then `Cc1[nH]cnc1CO` [Prestw-Frag-3752, Cc1[nH]cnc1CO], with 1.105; and `Clc1ccc2c(c1)Nc1ccccc1CC2` [Prestw-Frag-1101, Clc1ccc2CCc3ccccc3Nc2c1], with 2.203.
Then `COC(=O)C(O)(c1ccccc1)C1CCCC1` (stereo not drawn) [Prestw-Frag-2484, COC(=O)C(O)(C1CCCC1)c1ccccc1], with 1.411.
Take `O=C(OC1CCCCC1)c1ccccc1O` [Prestw-Frag-1382, Oc1ccccc1C(=O)OC1CCCCC1]: the “HNF4a-screening_activity_(mean_of_n=2)” value is 0.9579 and 1.189.
Next, `Cc1ccc(N)c(C#N)c1` [Prestw-Frag-3060, Cc1ccc(N)c(c1)C#N]: 0.8715; `Cn1c(=O)[nH]c2nc[nH]c2c1=O` [Prestw-Frag-1138, Cn1c(=O)[nH]c2nc[nH]c2c1=O]: 0.9492.
Then `CC(C)C1NCCc2c1[nH]c1ccccc21` (stereo not drawn) [Prestw-Frag-1264, CC(C)C1NCCc2c1[nH]c1ccccc21], with 1.008; and `COc1ccccc1OCCCO` [Prestw-Frag-1335, COc1ccccc1OCCCO], with 0.806 and 0.9658; and `N#CC1(c2ccc(F)cc2)CCCCC1` [Prestw-Frag-2647, Fc1ccc(cc1)C1(CCCCC1)C#N], with 0.99.
Regarding `c1cnccn1` [Prestw-Frag-2501, c1cnccn1], the “HNF4a-screening_activity_(mean_of_n=2)” value is recorded as 1.207.
On to `Nc1ccnn1-c1ccccc1` [Prestw-Frag-1648, Nc1ccnn1-c1ccccc1], for which the “HNF4a-screening_activity_(mean_of_n=2)” value amounted to 1.023.
For the compound `c1ccc(-c2ccccc2-c2nnn[nH]2)cc1` [Prestw-Frag-1441, c1ccc(cc1)-c1ccccc1-c1nnn[nH]1], the “HNF4a-screening_activity_(mean_of_n=2)” value is 1.051 and 0.7815.
On to `CCCC(=O)Nc1ccc(O)c(C(C)=O)c1` [Prestw-Frag-1716, CCCC(=O)Nc1ccc(O)c(c1)C(C)=O], for which the “HNF4a-screening_activity_(mean_of_n=2)” value is on record as 0.8359.
